Data from US20210205236A1, “THERAPEUTIC COMBINATIONS OF BOSWELLIA EXTRACT AND CANNABINOIDS” (priority 2018, published 2021).
Where two headings read alike, the source gives them in different places.

What was measured:
CB1 receptor [1] = target: T1, CB1 receptor (Homo sapiens, UniProt P21554); type: cell-based
T1 construct: expressed in transfected cells

CB1 receptor [2] = target: T1, CB1 receptor; assay: cell-based; type: cell-based
[3] = CBD 1 μM without AKBA, CP55940-induced activity = 100%
[4] = CBD 1 μM without AKBA, Table 3 data re-expressed as fold change

T1 sequence (P21554 whole entry): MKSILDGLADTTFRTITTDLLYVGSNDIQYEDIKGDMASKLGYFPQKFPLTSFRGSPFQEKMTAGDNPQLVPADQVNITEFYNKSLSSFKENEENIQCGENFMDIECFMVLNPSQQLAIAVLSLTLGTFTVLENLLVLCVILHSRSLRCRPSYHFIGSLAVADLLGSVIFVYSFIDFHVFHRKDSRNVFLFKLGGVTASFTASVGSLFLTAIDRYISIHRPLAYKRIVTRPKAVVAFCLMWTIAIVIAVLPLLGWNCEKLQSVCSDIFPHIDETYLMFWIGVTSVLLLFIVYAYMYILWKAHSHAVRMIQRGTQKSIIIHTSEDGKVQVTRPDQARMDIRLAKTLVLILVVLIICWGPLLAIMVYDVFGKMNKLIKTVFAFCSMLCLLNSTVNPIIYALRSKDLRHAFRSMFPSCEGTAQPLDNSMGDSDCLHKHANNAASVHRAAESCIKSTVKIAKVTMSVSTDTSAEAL

| SMILES | Experiment 1 Fold change (CB1 receptor [1]) [Fold change] | Experiment 2 Fold change (CB1 receptor [1]) [Fold change] | Experiment 3 Fold change (CB1 receptor [1]) [Fold change] | Experiment 1 Fold change (CB1 receptor [2]) [Fold change] | Experiment 2 Fold change (CB1 receptor [2]) [Fold change] | Experiment 3 Fold change (CB1 receptor [2]) [Fold change] | activity at […] (CB1 receptor [2]; read-out: Experiment 1 % of activity) [%] | activity at […] (CB1 receptor [2]; read-out: Experiment 2 % of activity) [%] | activity at […] (CB1 receptor [2]; read-out: Experiment 3 % of activity) [%] | Effect of cannabinoid on AKBA CB1R positive allosteric activity (CB1 receptor [2]; AKBA 50 and 100 μM, THCA 10 μM or CBD 1 μM) | Conclusions: Is CB1R antagonist effect observed? (CB1 receptor [2]; CBD 1 μM without AKBA, % of activity data) | Experiment 1 % of activity (CB1 receptor [2]; [3]) [%] | Experiment 2 % of activity (CB1 receptor [2]; [3]) [%] | Experiment 3 % of activity (CB1 receptor [2]; [3]) [%] | Experiment 1 Fold change (CB1 receptor [2]; [4]) [Fold change] | Experiment 2 Fold change (CB1 receptor [2]; [4]) [Fold change] | Experiment 3 Fold change (CB1 receptor [2]; [4]) [Fold change] | Conclusions: Is CB1R antagonist effect observed? (CB1 receptor [2]; CBD 1 μM without AKBA, positive allosteric activity, fold change data) |
| --- | --- | --- | --- | --- | --- | --- | --- | --- | --- | --- | --- | --- | --- | --- | --- | --- | --- | --- |
| CCCCCCC(C)(C)c1ccc([C@@H]2C[C@H](O)CC[C@H]2CCCO)c(O)c1 [CP, CP-55940, reference compound] | 2.5 | 2.5 | 2.5 | 2.5 | 2.5 | 2.5 | 100 | 100 | 100 |  |  |  |  |  |  |  |  |  |
| C=C(C)[C@@H]1CCC(C)=C[C@H]1c1c(O)cc(CCCCC)cc1O [CBD, cannabidiol, reference compound] |  |  |  |  |  |  |  |  |  | almost abolished | + (A reduction of the percentage below 50% indicates CB1R antagonistic activity) | 66.2 | 70.7 | 69.5 | 1.7 | 1.8 | 1.7 | Negative (Only treatments that the mean of three consecutive independent experiments show a positive result (CB1R activity ≥ 4-fold change) are considered positive CB1R allosteric agonists) |
